Assay results taken from US20260258035A1, “FIVE-MEMBERED AND SIX-MEMBERED NITROGEN-CONTAINING COMPOUND, AND INTERMEDIATE, PREPARATION METHOD AND USE THEREOF” (HANGZHOU SYNRX THERAPEUTICS BIOMEDICAL TECHNOLOGY CO., LTD., priority 2022, published 2026).

Biological target: PARG (Homo sapiens, UniProt Q86W56)
Assay: Biochemical assay (PARG, TFMU-ADPr substrate)
[1] = 4 nM PARG, 66.2 uM TFMU-ADPr, 3 min at room temperature

Chain of PARG (Q86W56 whole entry): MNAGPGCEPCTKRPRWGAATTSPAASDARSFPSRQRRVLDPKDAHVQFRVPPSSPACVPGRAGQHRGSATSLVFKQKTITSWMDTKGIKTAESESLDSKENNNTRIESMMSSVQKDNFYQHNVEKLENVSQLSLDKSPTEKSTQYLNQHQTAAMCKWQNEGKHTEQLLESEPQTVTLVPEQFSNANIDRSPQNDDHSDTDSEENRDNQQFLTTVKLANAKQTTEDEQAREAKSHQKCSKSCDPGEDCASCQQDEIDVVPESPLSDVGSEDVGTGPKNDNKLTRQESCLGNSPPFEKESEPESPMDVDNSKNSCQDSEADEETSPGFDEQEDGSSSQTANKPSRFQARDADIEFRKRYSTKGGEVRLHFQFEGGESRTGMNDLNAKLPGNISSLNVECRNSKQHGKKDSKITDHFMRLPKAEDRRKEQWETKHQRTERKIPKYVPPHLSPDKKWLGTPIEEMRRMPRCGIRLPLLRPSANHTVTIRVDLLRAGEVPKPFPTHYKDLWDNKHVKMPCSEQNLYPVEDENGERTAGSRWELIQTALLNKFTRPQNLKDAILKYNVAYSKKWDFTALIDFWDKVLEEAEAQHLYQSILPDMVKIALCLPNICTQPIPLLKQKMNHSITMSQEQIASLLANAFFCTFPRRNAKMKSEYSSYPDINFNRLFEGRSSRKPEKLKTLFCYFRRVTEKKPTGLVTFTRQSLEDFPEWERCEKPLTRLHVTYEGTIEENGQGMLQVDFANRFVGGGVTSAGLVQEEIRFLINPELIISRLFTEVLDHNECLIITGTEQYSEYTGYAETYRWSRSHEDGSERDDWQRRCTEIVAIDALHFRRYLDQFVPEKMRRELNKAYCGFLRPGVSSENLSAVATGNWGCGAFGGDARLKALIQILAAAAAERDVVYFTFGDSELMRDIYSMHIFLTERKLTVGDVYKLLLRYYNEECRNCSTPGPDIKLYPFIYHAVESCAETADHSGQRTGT

Row | IC50 [1] | IC50 (PARG, TFMU-ADPr substrate) | SMILES
1 | < 100 nM | 75.9 nM | C[C@@H]1CN(c2cc(S(=O)(=O)NC3(C#N)CC3)cn3c(-c4nnc(C(F)F)s4)ncc23)[C@@H](C)CN1C(=O)C1(C)CC1 [Example 93, N-(1-cyanocyclopropyl)-3-(5-(difluoromethyl)-1,3,4-thiadiazol-2-yl)-8-((2S,5R)-2,5-dimethyl-4-(1-methylcyclopropane-1-carbonyl)piperazin-1-yl)imidazo[1,5-a]pyridine-6-sulfonamide]
2 |  | 2100 nM | Cc1nnc(-c2cnc3c(N4CCN(C(=O)C(C)C)CC4)cc(S(=O)(=O)NC4(C#N)CC4)cn23)s1 [Example 2, N-(1-cyanocyclopropyl)-8-(4-isobutyrylpiperazin-1-yl)-3-(5-methyl-1,3,4-thiadiazol-2-yl)imidazo[1,2-a]pyridine-6-sulfonamide]
3 |  | 7240 nM | C=CC(=O)N1CCC(c2cnc3c(N4CCN(C(=O)C(C)C)CC4)cc(S(=O)(=O)NC4(C#N)CC4)cn23)C1 (centres unmarked) [Example 19, 3-(1-acryloylpyrrolidin-3-yl)-N-(1-cyanocyclopropyl)-8-(4-isobutyrylpiperazin-1-yl)imidazo[1,2-a]pyridine-6-sulfonamide]
4 | < 100 nM | 5.91 nM | N#CC1(NS(=O)(=O)c2cc(N3CCC(OCC(F)(F)F)CC3)c3cnc(-c4nnc(C(F)F)s4)n3c2)CC1 [Example 47, N-(1-cyanocyclopropyl)-3-(5-(difluoromethyl)-1,3,4-thiadiazol-2-yl)-8-(4-(2,2,2-trifluoroethoxy)piperidin-1-yl)imidazo[1,5-a]pyridine-6-sulfonamide]
5 |  | 13.2 nM | C[C@H]1CN(c2cc(S(=O)(=O)NC3(C)COC3)cn3c(-c4nnc(C(F)F)s4)nc(Cl)c23)C[C@H](CO)O1 [Example 133, 1-chloro-3-(5-(difluoromethyl)-1,3,4-thiadiazol-2-yl)-8-((2R,6S)-2-(hydroxymethyl)-6-methylmorpholino)-N-(3-methyloxetan-3-yl)imidazo[1,5-a]pyridine-6-sulfonamide]
6 | 100 to 500 nM | 280 nM | N#CC1(NS(=O)(=O)c2cc(-c3ccc(OC(F)(F)F)cc3)c3cnc(-c4nnc(C(F)F)s4)n3c2)CC1 [Example 141, N-(1-cyanocyclopropyl)-3-(5-(difluoromethyl)-1,3,4-thiadiazol-2-yl)-8-(4-(trifluoromethoxy)phenyl)imidazo[1,5-a]pyridine-6-sulfonamide]
7 | < 100 nM | 41.7 nM | CC1(O)CCN(c2cc(S(=O)(=O)NC3(CF)COC3)cn3c(-c4nnc(C(F)F)s4)ncc23)CC1 [Example 73, 3-(5-(difluoromethyl)-1,3,4-thiadiazol-2-yl)-N-(3-(fluoromethyl)oxetan-3-yl)-8-(4-hydroxy-4-methylpiperidin-1-yl)imidazo[1,5-a]pyridine-6-sulfonamide]
8 | < 100 nM | 18 nM | N#CC1(NS(=O)(=O)c2cc(N3CCC(O)C3)c3cnc(-c4nnc(C(F)F)s4)n3c2)CC1 (centres unmarked) [Example 42, N-(1-cyanocyclopropyl)-3-(5-(difluoromethyl)-1,3,4-thiadiazol-2-yl)-8-(3-hydroxypyrrolidin-1-yl)imidazo[1,5-a]pyridine-6-sulfonamide]
9 | < 100 nM | 50 nM | CC1(O)CCN(c2cc(S(=O)(=O)NC3(C)CC3)cn3c(-c4nnc(C(F)F)s4)nnc23)CC1 [Example 116, 3-(5-(difluoromethyl)-1,3,4-thiadiazol-2-yl)-8-(4-hydroxy-4-methylpiperidin-1-yl)-N-(1-methylcyclopropyl)-[1,2,4]triazolo[4,3-a]pyridine-6-sulfonamide]
10 | < 100 nM | 38.4 nM | CC(C)C(=O)N1CCN(c2cc(S(=O)(=O)NC3(COC(F)(F)F)CC3)cn3c(-c4nnc(C(F)F)s4)ncc23)CC1 [Example 49, 3-(5-(difluoromethyl)-1,3,4-thiadiazol-2-yl)-8-(4-isobutyrylpiperazin-1-yl)-N-(1-((trifluoromethoxy)methyl)cyclopropyl)imidazo[1,5-a]pyridine-6-sulfonamide]
11 | < 100 nM | 10.9 nM | CC(=O)N1CC2(CC=C(c3cc(S(=O)(=O)NC4(C#N)CC4)cn4c(-c5nnc(C(F)F)s5)cnc34)C2)C1 [Example 13, 8-(2-acetyl-2-azaspiro[3.4]oct-6-en-6-yl)-N-(1-cyanocyclopropyl)-3-(5-(difluoromethyl)-1,3,4-thiadiazol-2-yl)imidazo[1,2-a]pyridine-6-sulfonamide]
12 | < 100 nM | 100 nM | CC1(C(=O)N2CCN(c3cc(S(=O)(=O)NC4(C#N)CC4)cn4c(-c5nnc(C(F)F)s5)ncc34)CC2(C)C)CC1 [Example 95, N-(1-cyanocyclopropyl)-3-(5-(difluoromethyl)-1,3,4-thiadiazol-2-yl)-8-(3,3-dimethyl-4-(1-methylcyclopropane-1-carbonyl)piperazin-1-yl)imidazo[1,5-a]pyridine-6-sulfonamide]
13 | < 100 nM | 34.7 nM | N#CC1(NS(=O)(=O)c2cc(N3CCC(F)(CO)CC3)c3cnc(-c4nnc(C(F)F)s4)n3c2)CC1 [Example 90, N-(1-cyanocyclopropyl)-3-(5-(difluoromethyl)-1,3,4-thiadiazol-2-yl)-8-(4-fluoro-4-(hydroxymethyl)piperidin-1-yl)imidazo[1,5-a]pyridine-6-sulfonamide]
14 |  | 33.1 nM | Cc1cnc(-c2cnc3c(N4CCN(C(=O)C(C)C)CC4)cc(S(=O)(=O)NC4(C#N)CC4)cn23)s1 [Example 3, N-(1-cyanocyclopropyl)-8-(4-isobutyrylpiperazin-1-yl)-3-(5-methylthiazol-2-yl)imidazo[1,2-a]pyridine-6-sulfonamide]
15 | 500 to 1000 nM |  | CC(C)C(=O)N1CCN(c2cc(S(=O)(=O)NC3(C#N)CC3)cn3c(-c4cc5n(n4)CC(F)C5)cnc23)CC1 (centres unmarked) [Example 10, N-(1-cyanocyclopropyl)-3-(5-fluoro-5,6-dihydro-4H-pyrrolo[1,2-b]pyrazol-2-yl)-8-(4-isobutyrylpiperazin-1-yl)imidazo[1,2-a]pyridine-6-sulfonamide]
16 | < 100 nM | 29.8 nM | CN1CCN(c2cc(S(=O)(=O)NC3(C#N)CC3)cn3c(-c4nnc(C(F)F)s4)ncc23)CC1=O [Example 41, N-(1-cyanocyclopropyl)-3-(5-(difluoromethyl)-1,3,4-thiadiazol-2-yl)-8-(4-methyl-3-oxopiperazin-1-yl)imidazo[1,5-a]pyridine-6-sulfonamide]
17 | < 100 nM | 33 nM | Cc1ncc(-c2cnn3c(N4CCN(C(=O)C(C)C)CC4)cc(S(=O)(=O)NC4(C#N)CC4)cc23)s1 [Example 28, N-(1-cyanocyclopropyl)-7-(4-isobutyrylpiperazin-1-yl)-3-(2-methylthiazol-5-yl)pyrazolo[1,5-a]pyridine-5-sulfonamide]
18 |  | 6.03 nM | C[C@@H]1CN(c2cc(S(=O)(=O)NC3(C#N)CC3)cn3c(-c4nnc(C(F)F)s4)ncc23)CCN1C(=O)C1CNC1 [Example 288, (R)-8-(4-(azetidine-3-carbonyl)-3-methylpiperazin-1-yl)-N-(1-cyanocyclopropyl)-3-(5-(difluoromethyl)-1,3,4-thiadiazol-2-yl)imidazo[1,5-a]pyridine-6-sulfonamide]
19 | < 100 nM | 6.31 nM | O=S(=O)(NC1(CF)CC1)c1cc(N2CCC(O)C2)c2cnc(-c3nnc(C(F)F)s3)n2c1 (centres unmarked) [Example 46, 3-(5-(difluoromethyl)-1,3,4-thiadiazol-2-yl)-N-(1-(fluoromethyl)cyclopropyl)-8-(3-hydroxypyrrolidin-1-yl)imidazo[1,5-a]pyridine-6-sulfonamide]
